{"source": "patent EP0947200B1", "about": "“Compositions comprising Cetrorelix acetate for the treatment of female infertility and gonadal protection” (Zentaris IVF GmbH, priority 1993, dated 2015)", "key": {"[1]": {"assay_type": "physicochemical", "description": "Gemäß vorliegender Anmeldung soll der Wirkstoff subcutan in einer Dosis von 0,1 bis 20 mg appliziert werden können. Die wässrigen Lösungen des Dekapeptids sind instabil, eine Autoklavierung im Endbehälter ist nicht möglich. […] Um eine injizierbare Lösung zu erhalten, war daher die Entwicklung eines Lyophilisats erforderlich. Allerdings ist die Menge des Wirkstoffes in der zu lyophilisierenden Lösung so gering, dass bei niedrigen Wirkstoffkonzentrationen nur ein lockerer Flaum an der Glaswand der Ampulle nach der Trocknung der hilfsstofffreien Lösung resultiert, der mit dem zur Sterilisierung benutzten Wasserdampfstrom aus dem Vial ausgetragen wird. Es ist also erforderlich, einen Gerüstbildner einzusetzen, der einen stabilen Kuchen bildet. Bei hohen Konzentrationen kann auf diesen Hilfsstoff verzichtet werden. Als Gerüstbildner kommen folgende Hilfsstoffe infrage: Hexite, insbesondere Mannit, Glucit, Sorbit, wie D-Sorbit, Dulcit, Allit, Altrit (zum Beispiel D- und L-Altrit), Idit (zum Beispiel D- und L-Idit), deren optisch aktive Formen (D- beziehungsweise L-Formen) sowie die entsprechenden Racemate. Insbesondere wird Mannit, wie D-Mannit, L-Mannit, DL-Mannit, Sorbit und/oder Dulcit verwendet, und zwar hiervon vorzugsweise D-Mannit. Als Hexit können auch Mischungen der genannten Hexite verwendet werden, zum Beispiel Mischungen von Mannit und Sorbit und/oder Dulcit. […]"}, "[2]": {"test_system": "endogene Hormonproduktion (LH-FSH, Estradiol)", "assay_type": "in vivo, Patientinnen", "description": "Es hat sich nun herausgestellt, daß der Antagonist Cetrorelix gerade bei dieser Behandlung folgende Vorteile aufweist:\nUm eine totale Suppression zu erreichen, genügen bei der Behandlung mit Cetrorelix eine Behandlungsdauer von 5 Tagen. […] Darüber hinaus läßt sich in der 2. Therapiephase, der Ovulationsauslösephase, HMG einsparen. Dies stellt einen nicht unbeträchtlichen Kostenvorteil dieser in-vitro-Fertilisationsbehandlung dar. Die in-vitro-Fertilisation wird beispielsweise beim Vorliegen einer Tubenanomalie eingesetzt. Für diese Therapie ist es notwendig, den Zyklus genau zu kontrollieren und den Zeitpunkt der Ovulation möglichst genau festzulegen. Bisher wurde dies nur eingeschränkt erreicht, da durch Stimulation mit HMG/HCG der präovulatorische LH-Anstieg oft zu früh auftrat oder nicht lange genug aufrechterhalten wurde. Es ist jedoch von entscheidender Bedeutung für den Behandlungserfolg, diesen verfrühten Anstieg zu verhindern, um den Befruchtungszeitpunkt genau festlegen zu können. Dadurch wird die körperliche und psychische Belastung der Patientinnen reduziert und die Kliniklogistik optimal eingesetzt. […]"}, "[3]": {"experiment": "Solubility and hydrolytic stability in acetic acid", "assay_type": "physicochemical", "description": "Überraschenderweise stellte sich nun heraus, daß man Cetrorelix in 30 %iger VolumenNolumen Essigsäure gut lösen kann. Diese Lösung wird anschließend auf eine Endkonzentration von 3 % Cetrorelix mit Wasser für Injektionszwecke aufgefüllt und Mannit hinzugegeben. […] Lösungen, die nach dieser Methode hergestellt werden, […]"}}, "data": [{"substance": "Cetrorelix", "values": [{"measurement": "Stabilität der wässrigen Lösungen", "setting": "[1]", "result": "instabil"}, {"measurement": "Verhalten unter arzneibuchüblicher Sterilisation", "setting": "[1]; pharmacopoeial sterilisation (autoclaving in final container)", "result": "neigt unter arzneibuchüblicher Sterilisation zur Zersetzung"}, {"measurement": "Behandlungsdauer, um eine totale Suppression zu erreichen", "setting": "[2]; female patients, treatment of infertility", "result": 5, "unit": "Tagen"}, {"measurement": "Hyperstimulationssyndrom", "setting": "[2]; in vivo", "result": "kann nicht auftreten"}, {"measurement": "Hydrolyse der endständigen Amidgruppe", "setting": "[3]; acid medium (acetic acid solution)", "result": "nicht festgestellt"}, {"measurement": "Löslichkeit", "setting": "[3]; in 30 % (volume/volume) acetic acid", "result": "gut lösen"}]}]}
